Assay results as given in patent US20240041042A1, “1-(PYRIDYL)-5-AZINYLPYRAZOLE DERIVATIVES, AND THEIR USE FOR CONTROL OF UNDESIRED PLANT GROWTH” (Bayer Aktiengesellschaft, priority 2020, published 2024).

What was measured:
Assay type in all cases: in vivo
[1] = test system: Abutilon theophrasti (ABUTH); test: Post-emergence herbicidal action against ABUTH; conditions: visual rating about 3 weeks after treatment vs untreated controls (100% = plants have died, 0% = like control plants)
How it was run: (§1)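 Greenhouse plants sprayed at the one-leaf stage, 2–3 weeks after sowing, with WP or EC formulations plus 0.5% additive at 600 l/ha water. Activity rated visually after about 3 weeks versus untreated controls (100% = dead, 0% = like control), at 320 g/ha or lower.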

[2] = test system: Matricaria inodora (MATIN); test: Pre-emergence herbicidal action against MATIN
How it was run: (§2)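 Pre-emergence soil-surface spray of compound, formulated as wettable powder or emulsion concentrate, in aqueous suspension or emulsion with 0.5% additive (600 l/ha; rate 320 g/ha or less). Activity rated visually after roughly 3 weeks in the greenhouse as a percentage of untreated controls, 0% meaning no difference.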

[3] = test system: Pharbitis purpurea (PHBPU); test: Pre-emergence herbicidal action against PHBPU
How it was run: as §2

Viola tricolor (VIOTR) [4] = test: Pre-emergence herbicidal action against VIOTR
How it was run: as §2

[5] = test system: Alopecurus myosuroides (ALOMY); test: Post-emergence herbicidal action against ALOMY; conditions: visual rating about 3 weeks after treatment vs untreated controls (100% = plants have died, 0% = like control plants)
How it was run: as §1

Avena fatua (AVEFA) [6] = test: Post-emergence herbicidal action against AVEFA; conditions: 320 g/ha, visual rating about 3 weeks after treatment
How it was run: as §1

Viola tricolor (VIOTR) [7] = test: Post-emergence herbicidal action against VIOTR
How it was run: as §1

[8] = test system: Echinochloa crus-galli (ECHCG); test: Pre-emergence herbicidal action against ECHCG
How it was run: as §2

Lolium rigidum (LOLRI) [9] = test: Post-emergence herbicidal action against LOLRI; conditions: dosage 320 g/ha
How it was run: as §1

[10] = test system: Abutilon theophrasti (ABUTH); test: Pre-emergence herbicidal action against ABUTH; conditions: 100% = plants have died
How it was run: as §2

[11] = test system: Pharbitis purpurea (PHBPU); test: Post-emergence herbicidal action against PHBPU
How it was run: as §1

[12] = test system: Polygonum convolvulus (POLCO); test: Pre-emergence herbicidal action against POLCO
How it was run: as §2

[13] = test system: Alopecurus myosuroides (ALOMY); test: Pre-emergence herbicidal action against ALOMY; conditions: scored visually after about 3 weeks, 100% = plants have died
How it was run: as §2

Setaria viridis (SETVI) [14] = test: Pre-emergence herbicidal action against SETVI; conditions: dosage 320 g/ha
How it was run: as §2

Setaria viridis (SETVI) [15] = test: Post-emergence herbicidal action against SETVI; conditions: dosage 320 g/ha
How it was run: as §1

[16] = test system: Amaranthus retroflexus (AMARE); test: Pre-emergence herbicidal action against AMARE; conditions: visual scoring after about 3 weeks vs untreated controls
How it was run: as §2

Zea mays (ZEAMX) [17] = conditions: pre-emergence, 80 g/ha, crop plant compatibility, in comparison to untreated controls
How it was run: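 Scoring: visual, % of untreated control, about 3 weeks after a pre-emergence application to the soil surface. Application used WP or EC formulations diluted in water with 0.5% additive at 600 l/ha; dosage levels are marked by suffixes a, b and c.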

Lolium rigidum (LOLRI) [18] = test: Pre-emergence herbicidal action against LOLRI; conditions: dosage 320 g/ha
How it was run: as §2

[19] = test system: Verconica persica (VERPE); test: Pre-emergence herbicidal action against VERPE; conditions: dosage 320 g/ha
How it was run: as §2

[20] = test system: Echinochloa crus-galli (ECHCG); test: Post-emergence herbicidal action against ECHCG
How it was run: as §1

[21] = test system: Amaranthus retroflexus (AMARE); test: Post-emergence herbicidal action against AMARE
How it was run: as §1

Oryza sativa (ORYSA) = conditions: crop plant compatibility, 80 g/ha, effect in comparison to untreated controls
How it was run: (§3)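 Visual rating (% effect vs. untreated plants; 100% = plant death) made about 3 weeks after treatment. Plants had been sprayed at one-leaf stage, 2–3 weeks post-sowing, with aqueous WP/EC preparations containing 0.5% additive, 600 l/ha water volume; a, b, c mark dose levels.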

Zea mays (ZEAMX) [22] = conditions: crop plant compatibility, 80 g/ha, effect vs untreated controls
How it was run: as §3

[23] = test system: Polygonum convolvulus (POLCO); test: Post-emergence herbicidal action against POLCO
How it was run: as §1

[24] = test system: Verconica persica (VERPE); test: Post-emergence herbicidal action against VERPE
How it was run: as §1

Avena fatua (AVEFA) [25] = test: Pre-emergence herbicidal action against AVEFA; conditions: visual scoring after about 3 weeks vs untreated controls
How it was run: as §2

[26] = Dosage column 320 g/ha (title prints 3200 g/ha), scored visually after about 3 weeks
[27] = 80 g/ha, visual rating about 3 weeks after treatment vs untreated controls (100% = plants have died, 0% = like control plants)
[28] = 320 g/ha, visual rating about 3 weeks after treatment

Row | SMILES | Post-emergence action against ABUTH in % ([1]; 80 g/ha) [%] | Post-emergence action against ABUTH in % ([1]; 320 g/ha) [%] | Pre-emergence action against MATIN in % ([2]; dosage 80 g/ha) [%] | Pre-emergence action against MATIN in % ([2]; dosage 320 g/ha) [%] | Pre-emergence action against PHBPU in % ([3]; dosage 320 g/ha) [%] | Pre-emergence action against VIOTR in % (Viola tricolor (VIOTR) [4]; 320 g/ha, Viola tricolor) [%] | Pre-emergence action against VIOTR in % (Viola tricolor (VIOTR) [4]; dosage 80 g/ha) [%] | Post-emergence action against ALOMY in % ([5]; 320 g/ha) [%] | Post-emergence action against VIOTR in % (Viola tricolor (VIOTR) [7]; 320 g/ha) [%] | Post-emergence action against LOLRI in % (Lolium rigidum (LOLRI) [9]) [%] | Pre-emergence action against ABUTH [10, 26] [%] | Pre-emergence action against POLCO in % ([12]; dosage 320 g/ha) [%] | Pre-emergence action against ALOMY ([13]; 320 g/ha) [%] | Pre-emergence action against SETVI in % (Setaria viridis (SETVI) [14]) [%] | Post-emergence action against SETVI in % (Setaria viridis (SETVI) [15]) [%] | Pre-emergence action against AMARE in % ([16]; 320 g/ha) [%] | Pre-emergence action against ZEAMX in % (Zea mays (ZEAMX) [17]) [%] | Pre-emergence action against LOLRI in % (Lolium rigidum (LOLRI) [18]) [%] | Post-emergence action against ECHCG in % ([20]; dosage 80 g/ha) [%] | Post-emergence action against ECHCG in % ([20]; dosage 320 g/ha) [%] | further results
1 | CCOC(=O)COc1nn(-c2nc(F)ccc2F)c(-c2ccc(F)nc2)c1Cl [Example I-315] | 80 | 80 | 80 | 90 | 90 | 100 | 90 | 90 | 80 | 90 | 80 | 90 | 100 | 100 | 80 | 90 | 10 | 100 | 90 | 100 | Pre-emergence action against PHBPU in % ([3]; dosage 80 g/ha): 90%; Post-emergence action against ALOMY in % ([5]; 80 g/ha): 80%; Post-emergence action against AVEFA in % (Avena fatua (AVEFA) [6]): 80%; Pre-emergence action against ECHCG in % ([8]; dosage 80 g/ha): 90%; Pre-emergence action against ECHCG in % ([8]; dosage 320 g/ha): 100%; Post-emergence action against PHBPU in % ([11]; dosage 80 g/ha): 80%; Post-emergence action against PHBPU in % ([11]; dosage 320 g/ha): 80%; Pre-emergence action against POLCO in % ([12]; dosage 80 g/ha): 80%; Pre-emergence action against ALOMY ([13]; 80 g/ha): 100%; Pre-emergence action against AMARE in % ([16]; 80 g/ha): 90%; Pre-emergence action against VERPE in % [19]: 100%; Post-emergence action against AMARE in % [21, 27]: 80%; Post-emergence action against AMARE in % [21, 28]: 80%; Post-emergence action against ORYSA in % (Oryza sativa (ORYSA)): 20%; Post-emergence action against ZEAMX in % (Zea mays (ZEAMX) [22]): 20%; Post-emergence action against POLCO in % ([23]; dosage 80 g/ha): 80%; Post-emergence action against POLCO in % ([23]; dosage 320 g/ha): 80%; Post-emergence action against VERPE in % ([24]; 320 g/ha, VERPE): 90%; Post-emergence action against VERPE in % ([24]; dosage 80 g/ha): 80%; Pre-emergence action against AVEFA in % (Avena fatua (AVEFA) [25]; 320 g/ha): 90%
2 | O=C(O)COc1nn(-c2ncccc2C(F)(F)F)c(-c2ccc(F)nc2)c1Cl [Example I-327] | 80 | 90 | 80 | 80 | 80 | 100 | 100 | 100 | 90 | 90 | 100 | 90 | 100 | 100 | 90 | 100 | 20 | 100 | 80 | 90 | Post-emergence action against VIOTR in % (Viola tricolor (VIOTR) [7]; 80 g/ha): 90%; Pre-emergence action against ABUTH ([10]; 80 g/ha, scored visually after about 3 weeks vs untreated controls, 0% = like control plants): 100%; Post-emergence action against AMARE in % [21, 27]: 90%; Post-emergence action against AMARE in % [21, 28]: 90%; Post-emergence action against ORYSA in % (Oryza sativa (ORYSA)): 0%; Post-emergence action against ZEAMX in % (Zea mays (ZEAMX) [22]): 0%; Post-emergence action against POLCO in % ([23]; dosage 320 g/ha): 80%; Post-emergence action against VERPE in % ([24]; 320 g/ha, VERPE): 90%; Post-emergence action against VERPE in % ([24]; dosage 80 g/ha): 80%; Pre-emergence action against AVEFA in % (Avena fatua (AVEFA) [25]; 320 g/ha): 80%
3 | CCOC(=O)COc1nn(-c2nc(F)ccc2F)c(-c2ccc(F)nc2)c1Br [Example I-330] | 80 | 80 | 80 | 90 | 90 | 100 | 90 | 90 | 80 | 90 | 100 | 90 | 100 | 100 | 80 | 100 | 20 | 90 | 80 | 90 | Post-emergence action against ALOMY in % ([5]; 80 g/ha): 80%; Post-emergence action against AVEFA in % (Avena fatua (AVEFA) [6]): 80%; Pre-emergence action against ECHCG in % ([8]; dosage 320 g/ha): 100%; Post-emergence action against PHBPU in % ([11]; dosage 80 g/ha): 80%; Post-emergence action against PHBPU in % ([11]; dosage 320 g/ha): 90%; Pre-emergence action against VERPE in % [19]: 90%; Post-emergence action against AMARE in % [21, 27]: 80%; Post-emergence action against AMARE in % [21, 28]: 80%; Post-emergence action against ORYSA in % (Oryza sativa (ORYSA)): 10%; Post-emergence action against ZEAMX in % (Zea mays (ZEAMX) [22]): 10%; Post-emergence action against VERPE in % ([24]; 320 g/ha, VERPE): 80%; Post-emergence action against VERPE in % ([24]; dosage 80 g/ha): 80%; Pre-emergence action against AVEFA in % (Avena fatua (AVEFA) [25]; 80 g/ha): 80%; Pre-emergence action against AVEFA in % (Avena fatua (AVEFA) [25]; 320 g/ha): 90%
